20 molecules from patent publication US8962648B2, “Tricyclic compounds and PBK inhibitors containing the same” (OncoTherapy Science, Inc., priority 2010, dated 2015) can be followed below.

One assay relates to T47D cells. The assay can be described thus: Cell-based assay, cellular growth (Cell Counting Kit-8, 72 hours). The note with it: Homo sapiens. The method, then:
(§1) 100 micro-L of cell suspension was seeded onto 96-well microtiter plate (ViewPlate-96FTC, PerkinElmer). […] Cellular growth was determined using Cell Counting Kit-8 (DOJINDO) at 72 hours after the exposure of the candidate inhibitors. […] Accurate IC50 values were calculated as described previously.

A further assay concerns A549 cells. The assay is described as above. The note with it: Homo sapiens. As for the experimental part:
as §1

In the next assay the test system is BT-549 cells. Described as above. The following applies: Homo sapiens, BT549 cells. As for the experimental part: as §1
In a further assay the test system is HT-1197 cells. The assay can be described thus: Cell-based assay, cellular growth (Cell Counting Kit-8, 72 hours), PBK-negative control cells. The following applies: Homo sapiens. As for the experimental part:
as §1

In a further assay the target is PBK (Homo sapiens (Human), UniProt Q96KB5). The assay can be described thus: Kinase assay (IMAP fluorescence polarization, FITC-labeled histone H3 peptide). It counts as biochemical. The method, then:
PBK activity was determined in the presence or absence of compounds using fluorescein isothiocyanate-labeled (FITC-labeled) histone H3 peptide as a substrate. […] The serially diluted compounds, 0.8 ng/micro-L PBK (Carna Biosciences) and 100 nM FITC-labeled histone H3 peptide were reacted in a reaction buffer (20 mM HEPES, 0.01% Tween-20, 0.3 mM MgCl2, 2 mM dithiothreitol, 50 micro-M ATP, pH 7.4) at room temperature for 1 hour. The reaction was stopped by the addition of three fold assay volume of progressive binding solution. […] IC50 values were calculated by nonlinear four parameter fit using SigmaPlot, version 10.0 (Systat Software, Inc.).

Setting [1] is: PBK 0.8 ng/micro-L, 50 micro-M ATP, 100 nM FITC-labeled histone H3 peptide, room temperature 1 hour.

Structures can show the parent of a compound that is named as a salt. Where two headings read alike, the source gives them in different places.

PBK, sequence (Q96KB5 whole entry): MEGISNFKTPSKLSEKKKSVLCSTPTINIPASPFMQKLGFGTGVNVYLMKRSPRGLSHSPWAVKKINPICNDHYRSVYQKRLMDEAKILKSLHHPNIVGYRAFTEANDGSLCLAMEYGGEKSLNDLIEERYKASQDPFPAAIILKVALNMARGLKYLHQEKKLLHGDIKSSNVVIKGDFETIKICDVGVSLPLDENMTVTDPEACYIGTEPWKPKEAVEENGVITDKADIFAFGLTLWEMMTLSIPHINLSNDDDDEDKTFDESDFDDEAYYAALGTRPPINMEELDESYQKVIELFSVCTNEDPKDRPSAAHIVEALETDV

`C[C@@H](CN)c1ccc(-c2c(O)cc(Br)c3[nH]c(=O)c4sccc4c23)cc1` [Compound 1176, (R)-9-(4-(1-aminopropan-2-yl)phenyl)-6-bromo-8-hydroxythieno[2,3-c]quinolin-4(5H)-one hydrochloride]: the IC50 is 38 nM with T47D cells (T47D, 72 h); 27 nM in the assay on A549 cells (A549, 72 h); 24 nM in the assay on BT-549 cells; 100 nM with HT-1197 cells (HT1197, 72 h); 17 nM on PBK (setting [1]).

For `COc1ccc2[nH]c(=O)c3sccc3c2c1-c1ccc(C(C)CN)c(F)c1` (stereo not shown) [Compound 1179, 9-(4-(1-aminopropan-2-yl)-3-fluorophenyl)-8-methoxythieno[2,3-c]quinolin-4(5H)-one hydrochloride], the IC50 in the assay with T47D cells (T47D, 72 h) is 860 nM; in the assay with A549 cells (A549, 72 h) it was 630 nM; with BT-549 cells, 450 nM; in the assay with HT-1197 cells (HT1197, 72 h), 1900 nM; against PBK (setting [1]) it was 3 nM.

`CNC[C@H](C)c1ccc(-c2c(O)ccc3[nH]c(=O)c4sccc4c23)cc1` [Compound 1187, (R)-8-hydroxy-9-(4-(1-(methylamino)propan-2-yl)phenyl)thieno[2,3-c]quinolin-4(5H)-one hydrochloride]: the IC50 in the assay with T47D cells (T47D, 72 h) worked out at 190 nM; with A549 cells (A549, 72 h), 200 nM; in the assay on BT-549 cells, 190 nM; in the assay on HT-1197 cells (HT1197, 72 h) it was 320 nM; on PBK (setting [1]), 1.3 nM.

In the case of `C[C@@H](CN(C)C)c1ccc(-c2c(O)ccc3[nH]c(=O)c4sccc4c23)cc1` [Compound 1188, (R)-9-(4-(1-(dimethylamino)propan-2-yl)phenyl)-8-hydroxythieno[2,3-c]quinolin-4(5H)-one hydrochloride], the concentration for half-maximal inhibition (IC50) with T47D cells was found to be 290 nM; with A549 cells, 160 nM; in the assay on BT-549 cells, 160 nM; in the assay on HT-1197 cells (HT1197 cells (PBK-negative control)), 430 nM; at PBK, 2.5 nM.

As for `Cc1cc(O)c(-c2ccc(C(C)CN)c(F)c2)c2c1[nH]c(=O)c1sccc12` (stereo not shown) [Compound 1190, 9-(4-(1-aminopropan-2-yl)-3-fluorophenyl)-8-hydroxy-6-methylthieno[2,3-c]quinolin-4(5H)-one hydrochloride], the IC50 came to 19 nM with T47D cells (T47D, 72 h); 21 nM in the assay on A549 cells (A549, 72 h); 15 nM in the assay with BT-549 cells; 110 nM in the assay with HT-1197 cells (HT1197, 72 h); 5.1 nM against PBK (setting [1]).

For the molecule `Cc1cc(O)c(-c2ccc(CCN)cc2)c2c1[nH]c(=O)c1sccc12` [Compound 1191, 9-(4-(2-aminoethyl)phenyl)-8-hydroxy-6-methylthieno[2,3-c]quinolin-4(5H)-one hydrochloride], the IC50 in the assay on T47D cells (T47D, 72 h) amounted to 73 nM; in the assay with A549 cells (A549, 72 h), 120 nM; in the assay with BT-549 cells, 64 nM; with HT-1197 cells (HT1197, 72 h), 480 nM; on PBK (setting [1]), 19 nM.

In the case of `Cc1cc(O)c(-c2ccc(C(C)CN(C)C)c(F)c2)c2c1[nH]c(=O)c1sccc12` (stereo not shown) [Compound 1193, 9-(4-(1-(dimethylamino)propan-2-yl)-3-fluorophenyl)-8-hydroxy-6-methylthieno[2,3-c]quinolin-4(5H)-one hydrochloride], the 50% inhibitory concentration (IC50) in the assay with T47D cells (T47D, 72 h) was 240 nM; in the assay on A549 cells (A549, 72 h), 130 nM; with BT-549 cells, 140 nM; in the assay on HT-1197 cells (HT1197, 72 h) it was 330 nM; against PBK, 46 nM.

Consider `COc1cc(Cl)c2[nH]c(=O)c3sccc3c2c1-c1ccc([C@@H](C)CN)cc1` [Compound 1201, (R)-9-(4-(1-aminopropan-2-yl)phenyl)-6-chloro-8-methoxythieno[2,3-c]quinolin-4(5H)-one hydrochloride], for which the IC50 in the assay on T47D cells (T47D, 72 h) was 120 nM; with A549 cells (A549, 72 h), 46 nM; with BT-549 cells, 53 nM; in the assay on HT-1197 cells (HT1197, 72 h) it was 140 nM; on PBK (setting [1]), 20 nM.

Take `CC(CCl)NS(=O)(=O)c1ccc(-c2c(O)ccc3[nH]c(=O)c4sccc4c23)cc1` (stereo not shown) [Compound 1204, N-(1-chloropropan-2-yl)-4-(8-hydroxy-4-oxo-4,5-dihydrothieno[2,3-c]quinolin-9-yl)benzenesulfonamide]: the IC50 with T47D cells (T47D, 72 h) came out at 1900 nM; in the assay on A549 cells (A549, 72 h), 710 nM; in the assay on BT-549 cells it was 160 nM; in the assay with HT-1197 cells (HT1197, 72 h) it was 15000 nM; on PBK (setting [1]) it was 15 nM.

On to `NCCc1ccc(-c2c(O)cc(Br)c3[nH]c(=O)c4sccc4c23)cc1F` [Compound 1213, 9-(4-(2-aminoethyl)-3-fluorophenyl)-6-bromo-8-hydroxythieno[2,3-c]quinolin-4(5H)-one hydrochloride], for which the IC50 with T47D cells (T47D, 72 h) is 380 nM; with A549 cells (A549, 72 h), 360 nM; in the assay on BT-549 cells, 230 nM; with HT-1197 cells (HT1197, 72 h), 1700 nM; against PBK (setting [1]), 19 nM.

As to `COc1cc(C)c2[nH]c(=O)c3sccc3c2c1-c1ccc(CCN)c(F)c1` [Compound 1216, 9-(4-(2-aminoethyl)-3-fluorophenyl)-8-methoxy-6-methylthieno[2,3-c]quinolin-4(5H)-one hydrochloride], the IC50 in the assay with T47D cells (T47D, 72 h) turned out to be 460 nM; with A549 cells (A549, 72 h) it was 280 nM; with BT-549 cells it was 210 nM; with HT-1197 cells (HT1197, 72 h), 640 nM; against PBK (setting [1]), 57 nM.

Take `Cc1cc(O)c(-c2ccc(CCN)c(F)c2)c2c1[nH]c(=O)c1sccc12` [Compound 1217, 9-(4-(2-aminoethyl)-3-fluorophenyl)-8-hydroxy-6-methylthieno[2,3-c]quinolin-4(5H)-one hydrochloride]: the IC50 with T47D cells (T47D, 72 h) was determined as 84 nM; with A549 cells (A549, 72 h) it was 140 nM; with BT-549 cells, 65 nM; in the assay with HT-1197 cells (HT1197, 72 h) it was 480 nM; against PBK (setting [1]), 4.7 nM.

In the case of `NCCc1ccc(-c2c(O)cc(Cl)c3[nH]c(=O)c4sccc4c23)cc1F` [Compound 1219, 9-(4-(2-aminoethyl)-3-fluorophenyl)-6-chloro-8-hydroxythieno[2,3-c]quinolin-4(5H)-one hydrochloride], the IC50 was 180 nM in the assay with T47D cells (T47D, 72 h); 170 nM in the assay on A549 cells (A549, 72 h); 100 nM in the assay with BT-549 cells; 880 nM with HT-1197 cells (HT1197, 72 h); 5.5 nM on PBK (setting [1]).

Regarding `Cc1cc(O)c(-c2ccc(CCC#N)cc2)c2c1[nH]c(=O)c1sccc12` [Compound 1226, 3-(4-(8-hydroxy-6-methyl-4-oxo-4,5-dihydrothieno[2,3-c]quinolin-9-yl)phenyl)propanenitrile], the IC50 in the assay with T47D cells (T47D, 72 h) is 1200 nM; in the assay with A549 cells (A549, 72 h), 490 nM; in the assay on BT-549 cells, 590 nM; in the assay with HT-1197 cells (HT1197, 72 h), 1300 nM; against PBK (setting [1]), 92 nM.

As for `Cc1cc(O)c(-c2ccc(C(C)(C)CN)cc2)c2c1[nH]c(=O)c1sccc12` [Compound 1228, 9-(4-(1-amino-2-methylpropan-2-yl)phenyl)-8-hydroxy-6-methylthieno[2,3-c]quinolin-4(5H)-one hydrochloride], the IC50 with T47D cells (T47D, 72 h) worked out at 330 nM; with A549 cells (A549, 72 h), 160 nM; with BT-549 cells, 150 nM; in the assay on HT-1197 cells (HT1197, 72 h) it was 810 nM; at PBK (setting [1]), 39 nM.

`NCC(c1ccc(-c2c(O)ccc3[nH]c(=O)c4sccc4c23)cc1)C1CCCC1` (stereo not shown) [Compound 1236, 9-(4-(2-amino-1-cyclopentylethyl)phenyl)-8-hydroxythieno[2,3-c]quinolin-4(5H)-one]: the IC50 amounted to 800 nM with T47D cells (T47D, 72 h); 460 nM with A549 cells (A549, 72 h); 510 nM with BT-549 cells; 1000 nM with HT-1197 cells (HT1197, 72 h); 4.6 nM against PBK (setting [1]).

With `COc1ccc2[nH]c(=O)c3sccc3c2c1-c1ccc(C(CN)C2CCCC2)cc1` (stereo not shown) [Compound 1239, 9-(4-(2-amino-1-cyclopentylethyl)phenyl)-8-methoxythieno[2,3-c]quinolin-4(5H)-one hydrochloride], the concentration for half-maximal inhibition (IC50) with T47D cells (T47D, 72 h) amounted to 1100 nM; in the assay on A549 cells (A549, 72 h) it was 890 nM; with BT-549 cells, 1500 nM; in the assay with HT-1197 cells (HT1197, 72 h), 1700 nM; against PBK, 23 nM.

With `Cc1cc(O)c(-c2ccc(CC(C)N)cc2)c2c1[nH]c(=O)c1sccc12` (stereo not shown) [Compound 1242, 9-(4-(2-aminopropyl)phenyl)-8-hydroxy-6-methylthieno[2,3-c]quinolin-4(5H)-one hydrochloride], the IC50 worked out at 150 nM in the assay with T47D cells (T47D, 72 h); 120 nM in the assay with A549 cells (A549, 72 h); 110 nM in the assay on BT-549 cells; 420 nM in the assay with HT-1197 cells (HT1197, 72 h); 37 nM on PBK.

Regarding `CC(C)C(CN)c1ccc(-c2c(O)ccc3[nH]c(=O)c4sccc4c23)cc1` (stereo not shown) [Compound 1252, 9-(4-(1-amino-3-methylbutan-2-yl)phenyl)-8-hydroxythieno[2,3-c]quinolin-4(5H)-one], the IC50 turned out to be 210 nM in the assay with T47D cells (T47D, 72 h); 160 nM in the assay on A549 cells (A549, 72 h); 250 nM with BT-549 cells; 420 nM in the assay with HT-1197 cells (HT1197, 72 h); 1.4 nM on PBK (setting [1]).

Turning to `COc1ccc2[nH]c(=O)c3sccc3c2c1-c1ccc(C(CN)C(C)C)cc1` (stereo not shown) [Compound 1253, 9-(4-(1-amino-3-methylbutan-2-yl)phenyl)-8-methoxythieno[2,3-c]quinolin-4(5H)-one hydrochloride], the IC50 in the assay with T47D cells (T47D, 72 h) came out at 870 nM; in the assay on A549 cells (A549, 72 h), 760 nM; in the assay on BT-549 cells it was 1500 nM; with HT-1197 cells (HT1197, 72 h), 1900 nM; against PBK, 4.1 nM.
